Non-standard residues stand in square brackets, D forms with d. Residues, ends and D or L forms follow the SMILES beside them. No end group written: not given here. Ac5c = NC1(C(=O)O)CCCC1; Aib = CC(C)(N)C(=O)O
Columns and labels:
Format in all cases: cell-based
[1] = tested on: intracellular cAMP in MCF7 breast cancer cells; assay: cAMP levels in breast cancer cells (sandwich ELISA); conditions: 30 minutes, final peptide concentration 10^−9M, Forskolin 1 micromolar
Method: Enzyme linked sandwich immunosorbent assay was carried out on breast cancer cells (MCF7) to study the modulation in levels of cAMP upon treatment with the peptides and their combinations. The cells were cultured in sterile 6 well plates at a density of 0.5×10^6/well in DMEM supplemented with 10% FCS, and allowed to adhere overnight.
The cells were co-incubated with Forskolin at a concentration of 1 micromolar. The cells were scraped using a cell scraper and pelleted. The cell pellet was suspended in appropriate resuspension buffer (50 mM Tris, containing EDTA, 0.2 mM phenyl methyl sulfonyl fluoride (PMSF), 1 ug/ml pepstatin and 0.5 microgram/ml leupeptin adjusted to pH 7.4). The cell extracts were transferred to microcentrifuge tubes and centrifuged for 5 minutes at 10000×g. cAMP standards ranging in concentrations from 200 units/ml to 0 units/ml were prepared immediately prior to the start of the assay. Fluorescein isothiocyanate (FITC) conjugated monoclonal antibody directed to cAMP was added to microtitre wells precoated with primary monoclonal antibody against cAMP. 50 ul of sample lysates, and cAMP standards were added in duplicates in the microtitre wells containing both the monoclonals to cAMP. The wells were incubated at room temperature for 2 hours. The microtitre wells were washed three times with appropriate wash buffer (PBS 50 mM, with Tween 0.5%) and the appropriate dilution of anti FITC horse radish peroxidase conjugate was added and incubated for 30 minutes. The microtitre wells were washed thrice with the wash buffer and subsequently with distilled water. Tetra-methylbenzidine was added to each well and incubated in dark for 30 minutes at room temperature. The absorbance was measured in each well at dual wavelength of 450/595 nm within 30 minutes of the addition of stop solution and the amount of cAMP present in the cell samples calculated.

[2] = tested on: tyrosine phosphatase in MiaPaCa2 cells; assay: Tyrosine phosphatase activity in pancreatic cancer cells (colorimetric); conditions: 30 minutes, final peptide concentration 10^−9M
Method: The quantitation of tyrosine phosphatase was carried out colorimetrically by using their synthetic biotin labeled tyrosine phosphorylated peptide substrates. The enzyme reaction was quenched by the addition of a specific inhibitor, and the phosphorylated and dephosphorylated substrate is immobilized by binding to the streptavidin coated microtitre plate. The fraction of the unmetabolized substrate is determined by its anti phospho tyrosine antibody directly conjugated to peroxidase.
The cells were cultured in sterile 6 well plates at a density of 0.5×10^6/well in DMEM supplemented with 10% FCS, and allowed to adhere overnight. The medium was changed to DMEM. The cells were treated with appropriate concentrations of the peptide and their combinations shown in Table 6, for 30 minutes, such that in each case the final peptide concentration was 10^−9M.
The cells were lysed in appropriate lysis buffer (50 mM Tris, containing EDTA, 0.2 mM PMSF, 1 microgram/microliter pepstatin and 0.5 microgram/microliter leupeptin adjusted to pH 7.4). […]
The quantitation of phosphatase enzyme activity was performed with 30 microliter of specific substrates and the reaction was quenched with the addition of 100 micromolar sodium orthvanadate. […] After 3 washings, 100 microliter of the substrate POD was added to the wells, and the absorbance was read at 405 nm.

[3] = tested on: Caspase-3; assay: Caspase-3 induction (DEVD-pNA colorimetric) in cancer cells; conditions: each peptide 10^−8M, 6 hours
Method: PA-1 (Ovary), MDA.MB.453 (breast), HT29 (colon) and A549 (lung) cancer cells were cultured in 25 cm^2 tissue culture flasks at 37° C. in a humidified incubator containing 5% CO2. When cultures reached pre-confluence individual peptides of the combination and different combinations of the peptides as shown in Table 8 were added to different flasks such that the final concentration of each peptide in the flask was 10^−8M. The untreated flasks served as controls. The cells were incubated with drug for 6 hours.
After 6 hours of incubation cells were collected by trypsin treatment followed by centrifugation at 2000 r.p.m. for 10 minutes. The supernatant was gently removed and discarded and Lysis Buffer was added to the cell pellet (25 microliter of lysis buffer per 1×10^4 cells I a 15 ml conical tube) and incubated on ice for 10 minutes and centrifuged at 10,000-×g for 1 minute. 50 microliter of supernatant (cell lysate) was transferred to the wells of a 96-well plate. 2× Reaction buffer was prepared by adding 10 microliter of fresh DTT stock per 1 ml of 2× Reaction Buffer. 50 micro liter 2× Reaction Buffer was added to each well followed by addition of 5 micro liter of Caspase-3 colorimetric substrate (DEVD-pNA). The plate was incubated for 1-2 hours at 37° C. Following incubation the plate was read on a microplate reader at 405 nm-wavelength light the level of caspase enzymatic activity in the cell lys ate was directly proportional to the color reaction. The induction of caspase activity by the subcombinations was calculated as a percentage of control using the formula [(Sample OD/Control OD)−1]*100.

Compound	cAMP (% Of Control) [1] [% Of Control]	% Induction of Tyrosine phosphatase [2] [%]	Caspase-3 % INDUCTION ([3]; A549) [%]	Caspase-3 % INDUCTION ([3]; HT29) [%]	Caspase-3 % INDUCTION ([3]; MDA.MB453) [%]	Caspase-3 % INDUCTION ([3]; PA-1) [%]
CC(C)C[C@H](NC(=O)[C@H](Cc1c[nH]cn1)NC(=O)C(C)(C)NC(=O)[C@@H](NC(=O)[C@H](C)NC(=O)[C@H](Cc1c[nH]c2ccccc12)NC(=O)[C@H](CCC(N)=O)NC(=O)[C@H](N)Cc1ccccc1)C(C)C)C(N)=O [SEQ ID NO: 2, D-Phe-Gln-Trp-Ala-Val-Aib-His-Leu-NH2] (H-[dF]QWAV[Aib]HL-NH2; N-terminus assumed)	15.4 ± 3.0	–	–	–	–	–
CC(C)C[C@H](NC(=O)[C@@H](Cc1c[nH]c2ccccc12)NC(=O)[C@H](Cc1ccccc1)NC(=O)[C@@H](Cc1c[nH]c2ccccc12)NC(=O)[C@H](CCC(N)=O)NC(=O)[C@@H](Cc1ccccc1)NC(=O)[C@@H]1CCCN1C(=O)[C@H](CCCCN)NC(=O)[C@@H]1CCCN1C(=O)[C@H](N)CCCNC(=N)N)C(=O)NC1(C(N)=O)CCCC1 [SEQ ID NO: 3, D-Arg-Pro-Lys-Pro-D-Phe-Gln-D-Trp-Phe-D-Trp-Leu-Ac5c-NH2] (H-[dR]PKP[dF]Q[dW]F[dW]L[Ac5c]-NH2; N-terminus assumed)	13.3 ± 4.0	14.3 ± 3.5	38.5 ± 3.8	28.4 ± 2.4	22.8 ± 3.8	46.2 ± 2.1
C[C@@H](O)[C@H](NC(=O)[C@H]1NC(=O)[C@H]([C@@H](C)O)NC(=O)[C@H](CCCN)NC(=O)[C@@H](Cc2c[nH]c3ccccc23)NC(=O)[C@H](Cc2ccc(O)cc2)NC(=O)[C@@H](NC(=O)[C@H](N)Cc2ccccc2)CSSC1(C)C)C(N)=O [SEQ ID NO: 4, D-Phe-Cys-Tyr-D-Trp-Orn-Thr-Pen-Thr-NH2]	12.9 ± 5.0	15.6 ± 4.5	28.4 ± 2.8	18.6 ± 1.9	18.9 ± 1.0	34.8 ± 1.3
LMYPTYLK-OH [SEQ ID NO: 1, Leu-Met-Tyr-Pro-Thr-Tyr-Leu-Lys-OH]	25.2 ± 4.5	–	–	–	–	–

Reference: patent US7781398B2, “Drug comprising synthetic peptide analogs for the treatment of cancer” (Dabur Pharma Ltd., priority 2002, dated 2010)
